Measurements as given in patent US9693554B2, “Plant growth accelerator” (COSMO OIL CO., LTD., priority 2013, dated 2017).

What was measured:
Format in all cases: in vivo
Garland chrysanthemum = assay: Growth accelerating effect on garland chrysanthemum (pot grown); settings: 200 L per 10 a, applied 4, 5, 6 and 7 weeks after seeding, measured 8 weeks after seeding
Experimental: (§1) Garland chrysanthemum was seeded in a pot and grown. The soil used was a sterilized compost containing fertilizer components (180 mg/L of nitrogen, 120 mg/L of phosphoric acid, 220 mg/L of potassium). The plants were set at 4 plants/pot and 4 pots/area. 4, 5, 6 and 7 weeks after seeding, 200 L per 10 a of aqueous solutions containing 0.06 ppm or 0.6 ppm of 5-amino-4-hydroxypentanoic acid was applied. 8 weeks after seeding, the fresh weight of the above-ground part was measured.

Barley = assay: Growth accelerating effect on barley (pot grown); settings: 200 L per 10 a, applied 22 days after seeding, measured 35 days after seeding
Experimental: Barley was seeded in a pot and grown. The soil used was black soil. The plants were set at 4 plants/pot and 4 to 6 pots/area. A chemical fertilizer (containing 8% of nitrogen, phosphoric acid and potassium respectively) as a basal fertilizer was applied so that each of nitrogen, phosphoric acid and potassium was 5 kg per 10 a. 22 days after seeding, 200 L per 10 a of aqueous solutions containing 0.006 ppm, 0.06 ppm or 0.6 ppm, of 5-amino-4-hydroxypentanoic acid was applied. 35 days after seeding, the plant height, tillering and dry weight of the above-ground part were measured.

Komatsuna turnip green = assay: Growth accelerating effect on Komatsuna turnip green (field grown); settings: 0.06 ppm
Experimental: Komatsuna turnip green was seeded and grown at a field. The soil used was red clay. The plants were set at 40 to 52 plants/section and 2 to 3 sections/area. A coated fertilizer (containing 13% nitrogen, 11% phosphoric acid and 13% potassium) as a basal fertilizer was applied so that nitrogen was 50 kg per 10 a. 22 days after seeding, 1000 L per 10 a of an aqueous solution containing 0.06 ppm of 5-amino-4-hydroxypentanoic acid was applied twice. 42 days after seeding, the fresh weight of the above-ground part was measured.

Radish = assay: Growth accelerating effect on radish (pot grown); settings: 200 L per 10 a, applied 15 and 21 days after seeding, measured 28 days after seeding
Experimental: as §1, with “Radish” for “Garland chrysanthemum”, “15 days after” for “4, 5, 6”, “21 days” for “7 weeks”, “28 days” for “8 weeks”, “edible” for “above-ground”

Broccoli = assay: Growth accelerating effect on broccoli (pot grown); settings: 0.6 ppm
Experimental: Commercial young plants were settled in a pot and grown. The soil used was a sterilized compost containing fertilizer components (180 mg/L of nitrogen, 120 mg/L of phosphoric acid, 220 mg/L of potassium). The plants were set at 1 plant/pot and 4 pots/area. Every week (2 weeks through 10 weeks) after settling, 200 L per 10 a of an aqueous solution containing 0.6 ppm of 5-amino-4-hydroxypentanoic acid was applied. 11 weeks after settling, the fresh weight of the edible part was measured.

SMILES: NCC(O)CCC(=O)O (centres unmarked) [5-amino-4-hydroxypentanoic acid]
- Fresh weight of above-ground part (average) (Garland chrysanthemum; 0.06 ppm): 25.5 g
- Fresh weight of above-ground part (average) (Garland chrysanthemum; 0.6 ppm): 24.8 g
- Plant length (average) (Barley; 0.006 ppm aqueous solution): 19.4 cm
- Dry weight of above-ground part (average) (Barley; 0.006 ppm): 103 mg
- Tillering (average) (Barley; 0.006 ppm): 3.50
- Plant length (average) (Barley; 0.06 ppm aqueous solution): 20.1 cm
- Dry weight of above-ground part (average) (Barley; 0.06 ppm): 103 mg
- Tillering (average) (Barley; 0.06 ppm): 3.53
- Plant length (average) (Barley; 0.6 ppm aqueous solution): 20.2 cm
- Dry weight of above-ground part (average) (Barley; 0.6 ppm): 112 mg
- Tillering (average) (Barley; 0.6 ppm): 3.79
- Increase of fresh weight of the above-ground part compared with the control area (Komatsuna turnip green; 42 days after seeding): 19%
- Fresh weight of above-ground part (average) (Komatsuna turnip green; field, 1000 L per 10 a, applied twice, 22 days after seeding, measured 42 days after seeding): 40.6 g
- Fresh weight of edible part (average) (Radish; 0.06 ppm): 2.26 g
- Fresh weight of edible part (average) (Radish; 0.6 ppm): 2.54 g
- Increase of fresh weight of the edible part compared with the control area (Broccoli; 11 weeks after settling): 6%
- Fresh weight of edible part (average) (Broccoli; 200 L per 10 a, applied every week (2 through 10 weeks) after settling, measured 11 weeks after settling): 39.2 g
